Molecular target: tau (Homo sapiens, UniProt P10636)
Assay: MCE Phenols Library screening, tau biosensor cell seeding assay (AvZ)
Type: cell-based
Details: for Z repl 1 / Z Repl 2: Z score; for Z repl 1 / raw data 1: replicate 1; for Z Repl 2 / raw data 2: replicate 2; for AvZ (average z score of seeding, SDs from the mean level of seeding): 10 μM phenol in cell cultures, AD brain homogenate preincubated 16 hours, two biological replicates, positive = catalyzes seeding, negative = inhibits
[1] = average Z score of two replicates, Phenols Library screen
[2] = average Z score of the two replicates, MCE Phenols Library screen
[3] = average puncta of the two replicates
[4] = average Z score of the two replicates, tau seeding
[5] = average Z score of the two replicates, tau biosensor seeding, MCE Phenols Library screen

tau, sequence (P10636 623-695 limits assumed): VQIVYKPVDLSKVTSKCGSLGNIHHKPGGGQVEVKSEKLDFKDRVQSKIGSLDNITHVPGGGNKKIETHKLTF

| SMILES | Z repl 1 | Z Repl 2 | av Z [1] | av puncta (average of raw data 1 and 2) | raw data 1 (puncta) | raw data 2 (puncta) | av Z [2] | av puncta [3] | av Z [4] | av Z [5] | raw data 1 (raw puncta) | raw data 2 (raw puncta) | AvZ (average z score of seeding, SDs from the mean level of seeding) |
| --- | --- | --- | --- | --- | --- | --- | --- | --- | --- | --- | --- | --- | --- |
| O=c1c(O[C@@H]2O[C@H](CO)[C@@H](O)[C@H](O)[C@H]2O)c(-c2ccc(O)c(O)c2)oc2cc(O[C@@H]3O[C@H](CO[C@@H]4O[C@H](CO)[C@@H](O)[C@H](O)[C@H]4O)[C@@H](O)[C@H](O)[C@H]3O)cc(O)c12 | -0.562 | -0.434 |  |  | 19599.6 | 8130.05 | -0.498 | 13864.9 |  |  |  |  |  |
| COc1cc([C@@H]2OC[C@@H]3[C@H]2CO[C@H]3c2cc(OC)c(O[C@@H]3O[C@H](CO)[C@@H](O)[C@H](O)[C@H]3O[C@@H]3OC[C@](O)(CO)[C@H]3O)c(OC)c2)cc(OC)c1O | 0.189 | 0.95 |  | 25767.5 | 28623.9 | 22911 |  |  | 0.57 |  |  |  |  |
| OC[C@H]1O[C@@H](Oc2cc(O)cc(/C=C/c3ccc(O)cc3)c2)[C@H](O)[C@@H](O)[C@@H]1O (mixture of isomers) [(E/Z)-Polydatin] | 0.505 | -0.119 |  | 21956.3 | 32412.5 | 11500.1 |  |  | 0.193 |  |  |  |  |
| CCC1(O)C(=O)OCc2c1cc1n(c2=O)Cc2cc3cc(O)ccc3nc2-1 (racemic) [(±)-10-Hydroxycamptothecin] | 2.809 | 1.992 |  | 47054 | 60066.9 | 34041 |  |  |  | 2.4 |  |  |  |
| Cl.NCC(O)c1ccc(O)c(O)c1 (racemic) [DL-Norepinephrine (hydrochloride)] |  |  |  | 22344.8 | 29267.2 | 15422.3 |  |  |  |  |  |  |  |
| Cc1c(C)c2c(c(C)c1O)CCC(C)(CCCC(C)CCCC(C)CCCC(C)C)O2 (racemic) [DL-alpha-Tocopherol] | -0.849 | -0.142 |  |  | 16151.3 | 11251.7 | -0.496 | 13701.5 |  |  |  |  |  |
| COc1cc(/C=C/C(=O)O[C@H]2C[C@@](O)(C(=O)O)C[C@H](O)[C@@H]2O)ccc1O (stereo in doubt) [3-Feruloylquinic acid] | 0.043 | -0.387 | -0.172 | 17749.2 | 26861 | 8637.46 |  |  |  |  |  |  |  |
| CC=C1[C@H](O[C@@H]2O[C@H](CO)[C@@H](O)[C@H](O)[C@H]2O)OC=C(C(=O)OC)[C@H]1CC(=O)OC[C@H]1O[C@@H](OCCc2ccc(O)cc2)[C@H](O)[C@@H](O)[C@@H]1O (stereo in doubt) [Specneuzhenide] | -0.904 | 0.064 |  |  |  |  | -0.42 | 14474.2 |  |  | 15493.9 | 13454.5 |  |
| O=C(OC[C@H]1OC(OC(=O)c2cc(O)c(O)c(O)c2)[C@H](OC(=O)c2cc(O)c(O)c(O)c2)[C@@H](OC(=O)c2cc(O)c(O)c(O)c2)[C@@H]1O)c1cc(O)c(O)c(O)c1 (stereo partly drawn) [1,2,3,6-Tetragalloylglucose] | -1.751 | -1.021 |  | 3594.24 | 5324.12 | 1864.38 | -1.386 |  |  |  |  |  |  |
| O=C(C=Cc1ccc(O)c(O)c1)OC1CC(OC(=O)C=Cc2ccc(O)c(O)c2)(C(=O)O)CC(O)C1O (stereo not drawn) [1,3-Dicaffeoylquinic acid] | -1.077 | -0.588 |  | 9954.06 | 13417.7 | 6490.43 | -0.832 |  |  |  |  |  |  |
| CC(=O)c1ccc(C)cc1O [2'-Hydroxy-4'-methylacetophenone] | 0.483 | -0.487 |  | 19854.9 | 32144.5 | 7565.33 |  |  |  |  |  |  | -0.002 |
| O=C(O)c1ccc(O)c(O)c1O [2,3,4-Trihydroxybenzoic acid] | -0.335 | -0.39 |  |  |  |  |  | 15461.1 |  |  | 22324.8 | 8597.33 | -0.363 |
| O=C(O)c1ccc(O)cc1O [2,4-Dihydroxybenzoic acid] | 0.635 | -0.383 |  | 21320.5 | 33969.7 | 8671.41 |  |  |  |  |  |  | 0.126 |
| Oc1c(Br)cccc1Br [2,6-Dibromophenol] | -0.611 | 0.25 |  | 17229.5 | 19019.6 | 15439.4 |  |  |  |  |  |  | -0.18 |
| COc1cc2c(cc1O)CC[C@@H]1[C@@H]2CC[C@]2(C)[C@@H](O)CC[C@@H]12 [2-Methoxyestradiol] | 1.646 | 0.7 |  | 33178.1 | 46109.4 | 20246.7 |  |  |  | 1.173 |  |  |  |

Second part, the compound after the results:

| Z repl 1 | Z Repl 2 | av Z [1] | av puncta (average of raw data 1 and 2) | raw data 1 (puncta) | raw data 2 (puncta) | av Z [2] | av puncta [3] | av Z [4] | av Z [5] | raw data 1 (raw puncta) | raw data 2 (raw puncta) | AvZ (average z score of seeding, SDs from the mean level of seeding) | SMILES |
| --- | --- | --- | --- | --- | --- | --- | --- | --- | --- | --- | --- | --- | --- |
| 0.062 | -0.242 | -0.09 | 18635 | 27088.2 | 10181.7 |  |  |  |  |  |  |  | COc1cc(-c2cc(=O)c3c(O)c(OC)c(O)cc3o2)cc(O)c1OC |
| -0.599 | -0.958 |  | 10843.5 | 19152.5 | 2534.57 | -0.779 |  |  |  |  |  |  | O=C(O)CC(=O)OC[C@H]1O[C@@H](Oc2c(-c3ccc(O)c(O)c3)oc3cc(O)cc(O)c3c2=O)[C@H](O)[C@@H](O)[C@@H]1O |
| -0.457 | -0.234 |  |  |  |  | -0.346 | 15561.2 |  |  | 20858.2 | 10264.2 |  | O=C(O[C@H](Cc1ccc(O)c(O)c1)C(=O)O)C1=Cc2cc(O)c(O)cc2[C@H](c2ccc(O)c(O)c2)[C@H]1C(=O)OC(Cc1ccc(O)c(O)c1)C(=O)O (stereo in doubt) [Rabdosiin] |
| -1.617 | -1.152 |  | 3698 | 6931.48 | 464.513 |  |  |  |  |  |  | -1.385 | Oc1ccc(O)c(O)c1 [1,2,4-Trihydroxybenzene] |
| 1.606 | 0.927 |  | 34150.6 | 45632.1 | 22669.1 |  |  |  | 1.267 |  |  |  | Oc1cccc2ccccc12 [1-Naphthol] |
| -0.93 | -0.817 |  | 9615.07 | 15187.3 | 4042.85 | -0.873 |  |  |  |  |  |  | O=C(O[C@H]1[C@H](Oc2c(-c3ccc(O)c(O)c3)oc3cc(O)cc(O)c3c2=O)O[C@H](CO)[C@H](O)[C@@H]1O)c1cc(O)c(O)c(O)c1 [2""-O-Galloylhyperin] |
| 0.385 | -0.124 |  | 21205.2 | 30969.9 | 11440.6 |  |  |  |  |  |  | 0.13 | COc1ccc(C(C)=O)c(O)c1O [2,3-Dihydroxy-4-methoxyacetophenone] |
| -0.264 | -0.663 |  |  | 23175.8 | 5682.84 |  | 14429.3 |  |  |  |  | -0.464 | CC(=O)c1cc(O)ccc1O [2,5-Dihydroxyacetophenone] |
| 0.475 | 0.955 |  | 27508.9 | 32047.3 | 22970.5 |  |  |  |  |  |  | 0.715 | O=C(O)c1c(O)cccc1O [2,6-Dihydroxybenzoic acid] |
| 0.44 | -0.434 |  | 19881.8 | 31637.3 | 8126.32 |  |  |  |  |  |  | 0.003 | Cc1cc(O)cc(C)c1O [2,6-Dimethylhydroquinone] |
| 0.346 | -0.011 |  | 21574.5 | 30502.1 | 12646.9 |  |  |  |  |  |  | 0.167 | CCc1cccc(C)c1O [2-Ethyl-6-methylphenol] |
| -1.341 | -0.32 |  | 9796.98 | 10246.8 | 9347.15 |  |  |  |  |  |  | -0.831 | O=C(O)Cc1ccccc1O [2-Hydroxyphenylacetic acid] |
| 1.167 | 0.175 |  | 27499.2 | 40362.2 | 14636.1 |  |  |  |  |  |  | 0.671 | OCCc1ccccc1 [2-Phenylethanol] |
| -0.338 | -0.997 |  |  | 22292.7 | 2117.17 |  | 12205 |  |  |  |  | -0.667 | CC(=O)c1ccc(O)c(O)c1 [3',4'-Dihydroxyacetophenone] |
| -0.14 | 0.484 |  | 21302.3 | 24671.3 | 17933.3 |  |  | 0.172 |  |  |  |  | COc1cc(/C=C/c2ccc(O)c(O)c2)cc(OC)c1 [3'-Hydroxypterostilbene] |
| -0.715 | -0.346 |  |  | 17766.4 | 9073.25 | -0.53 | 13419.8 |  |  |  |  |  | O=c1c(-c2ccc(O)c(O)c2)coc2c([C@@H]3O[C@H](CO)[C@@H](O)[C@H](O)[C@H]3O)c(O)ccc12 [3'-Hydroxypuerarin] |
